Tests used:
Format in all cases: physicochemical
[1] = Second dissolution experiment: sample stirred into the oil phase of an SPF 25 sunscreen oil, 6% DHHB; settings: for increase rate of dissolution time: added concentration 6% versus 3%; for Sample dissolution time: added concentration 6%, 25°C, stirring rate 150 r/min, oil phase
Experimental: (§1) In this dissolution experiment, the agglomeration degree of the ultraviolet absorbers in the above examples and comparative examples was evaluated, and each sample of a certain mass was added into an oil phase and stirred at room temperature (25°C) at a stirring rate of 150 r/min for dissolution. The dissolution experiment was carried out on raw materials for preparation of a sunscreen oil with an SPF value of 25. Table 15 Raw material table
Except that DHHB is a solid, all other components are liquid oils. A production process includes: sequentially adding various components into an oil pot, and enabling a stirring function until the components are completely dissolved. Table 16 Sample property test result table

[2] = First dissolution experiment: sample stirred into the oil phase of an SPF 25 sunscreen oil, 3% DHHB; settings: added concentration 3%, 25°C, stirring rate 150 r/min
Experimental: as §1, with “with a sun protection factor (SPF)” for “with an SPF”, “Table 13” for “Table 15”
Except that DHHB is a solid, all other components are liquid oils. A production process includes: sequentially adding various components into an oil pot, and enabling a stirring function until the components are completely dissolved. Table 14 Sample property test result table

[3] = Particle size testing by laser diffraction (Malvern MS2000 laser particle size analyzer, dispersant water); settings: for αd5: Vd5/Vd100, distribution coefficient of particles with a particle size of 5 µm; for αd10: Vd10/Vd100, distribution coefficient of 10 µm particles; for Consistency / Span (β) / Specific surface area / Surface area-average particle size D[3,2] / Volume-average particle size D[4,3]: laser diffraction, dispersant water; for d(0.9): maximum particle size, cumulative distribution 90%; for d(0.5): median particle size, cumulative distribution 50%; for d(0.1): minimum particle size, cumulative distribution 10%; for Particle size distribution d(0.9) (integer) / Particle size distribution d(0.1) (integer): rounded to integer, Tables 14 and 16
Experimental: The particle size distribution and characteristics of the ultraviolet absorber described herein, such as the minimum particle size d(0.1), the d(0.9) and the consistency are determined by a laser diffraction method, and determination conditions are as follows: • particle size analyzer: Malvern MS2000 laser particle size analyzer; • name of an injector: Hydro 2000MU (A); • analysis mode: general; • particle size range: 0.02-2000 µm; • name of a dispersant: water.

Compound | increase rate of dissolution time [1] | Sample dissolution time [1] [min] | Sample dissolution time [2] [min] | difference between D[3,2] and D[4,3] [3] [µm] | αd5 [3] | αd10 [3] | Consistency [3] | Span (β) [3] | Specific surface area [3] [m^2/g] | Surface area-average particle size D[3,2] [3] [µm] | Volume-average particle size D[4,3] [3] [µm] | d(0.9) [3] [µm] | d(0.5) [3] [µm] | d(0.1) [3] [µm] | Particle size distribution d(0.9) (integer) [3] [µm] | Particle size distribution d(0.1) (integer) ([3]; in µm) | Particle size distribution d(0.1) (integer) [3]
CCCCCCOC(=O)c1ccccc1C(=O)c1ccc(N(CC)CC)cc1O [Comparative Example 1] | about 38% | 208 | 151 | 128.616 | 0.005 | 0.122 | 2.44 | 10.995 | 0.258 | 23.263 | 151.879 | 518.950 | 51.970 | 10.517 | 519 | 11 | 
CCCCCCOC(=O)c1ccccc1C(=O)c1ccc(N(CC)CC)cc1O [Comparative Example 2, reference compound] | about 50% | 202 | 134 |  |  |  |  |  |  |  |  |  |  |  | 1000 |  | 850 (±20)
CCCCCCOC(=O)c1ccccc1C(=O)c1ccc(N(CC)CC)cc1O [Example 1, 2-(4-N,N-diethylamino-2-hydroxybenzoyl) hexyl benzoate] |  |  |  | 11.727 | 0.0160 | 0.111 | 0.638 | 2.008 | 0.331 | 18.113 | 29.840 | 57.575 | 23.866 | 9.647 | 58 |  | 
CCCCCCOC(=O)c1ccccc1C(=O)c1ccc(N(CC)CC)cc1O [Example 2, 2-(4-N,N-diethylamino-2-hydroxybenzoyl) hexyl benzoate] |  | < 5 | < 5 | 8.865 | 0.006 | 0.104 | 0.578 | 1.869 | 0.325 | 18.463 | 27.328 | 51.867 | 22.470 | 9.862 | 52 | 10 | 
CCCCCCOC(=O)c1ccccc1C(=O)c1ccc(N(CC)CC)cc1O [Example 3, 2-(4-N,N-diethylamino-2-hydroxybenzoyl) hexyl benzoate] |  | < 5 | < 5 | 17.543 | 0.019 | 0.107 | 0.691 | 2.23 | 0.295 | 20.356 | 37.899 | 77.626 | 30.410 | 9.803 | 78 | 10 | 
CCCCCCOC(=O)c1ccccc1C(=O)c1ccc(N(CC)CC)cc1O [Example 4, 2-(4-N,N-diethylamino-2-hydroxybenzoyl) hexyl benzoate] |  | < 5 | < 5 | 11.215 | 0.002 | 0.074 | 0.62 | 1.998 | 0.284 | 21.149 | 32.364 | 62.903 | 25.939 | 11.066 | 63 | 11 | 
CCCCCCOC(=O)c1ccccc1C(=O)c1ccc(N(CC)CC)cc1O [Example 5, 2-(4-N,N-diethylamino-2-hydroxybenzoyl) hexyl benzoate] |  | < 5 | < 5 | 21.881 | 0.037 | 0.095 | 0.596 | 1.944 | 0.281 | 21.390 | 43.271 | 43.271 | 21.390 | 10.747 | 43 | 10 | 
